Each structure is given as a SMILES string.

Assay [1] has as its system Wistar rats with stroke induced middle cerebral artery occlusion (MCAO). Kind of assay: Chronic MCAO stroke study, Wistar (Example 7). Type of assay: in vivo. To be noted: Braintone 500 mg/kg, Ginkgo 20, Aspirin 10, Losartan 1 mg/kg/day, means +/- SD, scale 0 to 5. The protocol:
(§1) 96 Wistar rats and 96 SHR, weighing 250-300 g, were randomly divided into eight treatment groups respectively (see Table 14), Remembrance (Formulation A) and other comparative drugs were dissolved in distilled water and administrated orally once daily for two months (Table 14: dosage of administration).
Oral administration of Remembrance/other treatments (2 months)→MACO→Continue the corresponding treatment after MACO (1 month)→Measurements
The differentiation of […] capillaries and evaluation of morphological changes after cerebral ischemia were performed using Hematoxylin and Eosin Staining. Random slides of the rat brains were used for the staining.

The subject of assay [2] is apoptosis-induced nuclear DNA fragmentation in cerebral cortex. Kind of assay: Apoptosis assay, TUNEL staining, SHR (Example 7). Type of assay: in vivo. As to conditions: doses of Table 14.
From the text: TUNEL staining was used for detection of apoptosis-induced nuclear DNA fragmentation via fluorescence microscopy. Apoptotic cells were identified by using TUNEL staining.
Assay [3] shares this test system. Nature of the assay: Apoptosis assay, TUNEL staining, Wistar (Example 7). Type of assay: in vivo, Wistar rats. As to conditions: after 1 month of MCAO, doses of Table 14.
From the text: TUNEL staining was used for detection of apoptosis-induced nuclear DNA fragmentation via fluorescence microscopy.
Apoptotic cells were identified by using TUNEL staining.
The test system of assay [4] is oxidized DNA base products. Kind of assay: DNA damage, oxidized DNA base products by GC/MS, Wistar (Example 7). Type of assay: in vivo, Wistar rats. To be noted: stroke-induced, Aspirin 10, Losartan 1 mg/kg/day.
Assay [5] relates to spontaneous hypertension rats (SHR) with stroke induced middle cerebral artery occlusion (MCAO). Nature of the assay: Chronic MCAO stroke study, SHR (Example 7). In kind it is in vivo. To be noted: Braintone (500), Ginkgo 20, Aspirin 10, Losartan 1 mg/kg/day, means +/- SD, scale 0 to 5.
For assay [6], the system named is Bcl-xS. Nature of the assay: Gene expression Bcl-xS, SHR (Example 7). Type of assay: in vivo. To be noted: doses of Table 14, vs Vehicle group. The method, then:
as §1
(§2) Glyceraldehydes-3-[…] dehydrogenase (GAPDH) was used as the internal standard gene. Primers sequences of GAPDH, VEGF, eNOS, ACE, AT1, AT2, Fas, Bax, Bcl-xL and Bcl-xS were used in this study.

A further assay relates to Bax. Nature of the assay: RT-PCR gene expression in left cortex after MCAO: Bax (Example 6). In kind it is in vivo, Wistar rats. As to conditions: stroke-operated group, doses of Table 12; compared with stroke operated vehicle group (p<0.05). From the text: (§3) The brains were collected for further gene expression studies. The cerebral left cortexes containing infarct area were separated.

The test system of assay [7] is BcL-xL. Kind of assay: Gene expression Bcl-xL, Wistar (Example 7). In kind it is in vivo, Wistar rats. As to conditions: Losartan 1 mg/kg/day, compared with vehicle group (p<0.01). The protocol: as §1, §2
Assay [8] relates to oxidized DNA base products. Nature of the assay: Evaluation of DNA damage in blood DNA by GC/MS (Example 5). In kind it is in vivo, Wistar rats and SHR. To be noted: Stroke + treatment, doses of Table 9; mean ± S.D.; unit not given in Table 11 (Table 10: nmol/mg DNA). The protocol: 60 Wistar rats and 60 SHR were divided into six treatment groups separately (excluding the vehicle group). The single blinded experiment was conducted with Formulation B and other drugs being administrated once daily orally (see Table 9). After a week treatment, Wistar rats underwent a MCAO procedure to induce stroke. Treatment was continued for another week after surgery before the rats were sacrificed by decapitation. DNA extraction and DNA base damage analysis was then performed. DNA was extracted from blood samples collected from different treatment groups of Wistar rats and SHR using the phenol-chloroform method. The DNA samples were then analyzed by GC/MS.

Assay [9] has as its system Spontaneous Hypertensive Rats (SHR) with MCAO. Kind of assay: 2-week MCAO stroke study, SHR (Example 4). Type of assay: in vivo. The protocol:
(§4) Wistar and SHR rats were randomly divided into four treatment groups and one sham group (see Table 7 and 8).
(§5) The morphological changes were evaluated after cerebral ischemia. The brains were dipped in M-1 Embedding Matrix for frozen sectioning, frozen in liquid nitrogen and stored at −80 deg C. The cerebral sections were then cut from the middle part of the frozen brain at 20 um. 4 to 6 sections were obtained from each brain for HE staining. HE staining of sections was performed to differentiate capillaries, after which they were covered with crystal mount. Cerebral sections were examined under the microscope and photographed.

Assay [10] relates to BcL-xL. Nature of the assay: RT-PCR gene expression in left cortex after MCAO: BcL-xL (Example 6). Type of assay: in vivo, Wistar rats. As to conditions: stroke operated, doses of Table 12.
From the text: as §3

The subject of another assay is AT2 receptor. Kind of assay: RT-PCR gene expression in left cortex after MCAO: AT2 (Example 6). In kind it is in vivo, Wistar rats. As to conditions: stroke operated groups, doses of Table 12; compared with stroke operated vehicle group (p<0.05).
From the text: as §3

For the next assay, the system named is Fas. Kind of assay: RT-PCR gene expression in left cortex after MCAO: Fas (Example 6). Type of assay: in vivo, Wistar rats. To be noted: stroke-operated group, doses of Table 12; compared with stroke operated vehicle group.
From the text: as §3

A further assay concerns Wistar Rats with MCAO. Kind of assay: 2-week MCAO stroke study, Wistar (Example 4). In kind it is in vivo. The method, then: as §4, §5
In assay [11] the test system is BcL-xS. Nature of the assay: RT-PCR gene expression in left cortex after MCAO: BcL-xS (Example 6). To be noted: stroke operated, doses of Table 12; compared with stroke operated vehicle group (p<0.05). In kind it is in vivo, Wistar rats.
From the text: as §3

The nature of assay [12]: Inhibition of Pyrogallol Red Bleaching by Hypochlorous Acid. As to conditions: 10 mg/ml; 125 uM HOCL; pH 7.4, 37 deg. C.; 542 nm. Type of assay: biochemical. The method, then:
Pyrogallol Red was dissolved in 100 mM buffer at 37 deg. C., pH 7.4, after which 125 uM HOCL was added and incubated with 10 mg/ml ascorbic acid and other select herbal extracts including two batches of Formulation B. The absorbance values of the mixtures in the presence and absence of the antioxidant were recorded by UV visible spectrophotometer at 542 nm.

A short description of another assay: Inhibition of ABTS Assay. Type of assay: biochemical. To be noted: 10 ul of 10 mg/ml in 990 ul ABTS reagent; 2 minutes; 734 nm.
The mark [13] stands for this setting: MCAO, Formulation B 500 mg/kg/day, Losartan 1 mg/kg/day.
[14] abbreviates: MCAO, Formulation B 500 mg/kg/day, Losartan 1 mg/kg/day, day 13.

Protocol for Inhibition of ABTS Assay: 10 ul of 10 mg/ml of select herbal extracts and two batches of Formulation B were mixed with 990 ul of ABTS reagent and incubated for 2 minutes before the absorbance was measured by UV visible spectrophotometer at 734 nm.

Consider `CC(=O)Oc1ccccc1C(=O)O` [Aspirin], for which the “Neurological score, 1 day after stroke” value in [1] is recorded as 1 ± 1.73; in assay [5] it was 1.72 ± 1.73. Moreover, the “Neurological score, 1 day before decapitation” value is listed as 2 ± 2.74 in [1] and 1.54 ± 2.15 in [5]. For the same molecule, the “Neurological score, 15 days after stroke” value in assay [1] was 2 ± 2.45; in [5], 0.63 ± 1.84. The “apoptosis (TUNEL staining) in cerebral cortex” value in [2] and in assay [3] was “reduction in apoptosis” throughout. Besides, the “amount of DNA damage compared to Remembrance 500 mg group” value in assay [4] is “higher amount of DNA damage”.

As to `CCCCc1nc(Cl)c(CO)n1Cc1ccc(-c2ccccc2-c2nn[nH]n2)cc1` [Losartan], the Bcl-xS expression result with Bcl-xS [6] was “up-regulating effects”. Further, the Bax gene expression result with Bax is recorded as “significant effect in down regulating”. Besides, the Bcl-xL expression result in the assay with BcL-xL [7] is “significant fold decrease”. Further, in [8], the “2OH Adenine” value worked out at 0.02 ± 0.03; the “5(OH, Me) Uracil” value came out at 0.04 ± 0.03; the “5CI Uracil” value is recorded as 0.02 ± 0.01; the “5Formyl Uracil” value amounted to 0.01 ± 0.01. Also, in assay [8], the “5OH Cytosine” value was found to be 0.01 ± 0.01; the “5OH Uracil” value is 0.01 ± 0.01; the “5OH, Me Hydantoin” value is recorded as 0.10 ± 0.02; the “8OH Adenine” value was 0.05 ± 0.04. Also, in [8], the “8OH Guanine” value was found to be 0.13 ± 0.04, the “FAPy Adenine” value was found to be 0.09 ± 0.03, the “FAPy Guanine” value is given as 0.03 ± 0.03 and the Hypoxanthine stood at 22.21 ± 8.01. Moreover, in assay [8], the “Thymine Glycol (cis)” value is 2.20 ± 0.15 and the Xanthine turned out to be 1.51 ± 0.32. For the same molecule, the “amount of DNA damage compared to Remembrance 500 mg group” value in [4] is recorded as “higher amount of DNA damage”. This molecule yielded an infarct volume in [9] (setting [13]) of 5.22%. Moreover, in assay [9] (setting [14]), the mortality rate came to 28.6%. Besides, the “number of capillaries, HE staining” value in assay [9] (after MCAO) is 15 capillaries. Moreover, in the assay on BcL-xL [10], the “BcL-xL up or down regulation” value is “did not have any significant effects”. Also, the AT2 expression result with AT2 receptor is recorded as “significantly reduced”. Moreover, in the assay with Fas, the Fas expression entry is on record as “no significant effect”. The molecule also came in with an infarct volume in the assay on Wistar Rats with MCAO (setting [13]) of 2.41%. The mortality rate with Wistar Rats with MCAO (setting [14]) amounted to 0%. The “number of capillaries, HE staining” value in the assay on Wistar Rats with MCAO (after MCAO) is given as 22 capillaries. In addition, in the assay on BcL-xS [11], the BcL-xS expression entry was “significantly reduced expression”.

For the molecule `CCOC(=O)[C@H](CCc1ccccc1)N[C@@H](C)C(=O)N1[C@H](C(=O)O)C[C@@H]2CCC[C@@H]21` [Ramipril], in the assay on Bax, the Bax gene expression entry is “significant effect in down regulating”. Further, in assay [8], the “2OH Adenine” value is 0.03 ± 0.02; the “5(OH, Me) Uracil” value is on record as 0.03 ± 0.00; the “5CI Uracil” value turned out to be 0.01 ± 0.00; the “5Formyl Uracil” value is reported as 0.50 ± 0.03. For the same molecule, in assay [8], the “5OH Cytosine” value stood at 0.05 ± 0.01; the “5OH Uracil” value is listed as 0.06 ± 0.00; the “5OH, Me Hydantoin” value is listed as 0.04 ± 0.02; the “8OH Adenine” value is on record as 0.03 ± 0.01. For the same molecule, in assay [8], the “8OH Guanine” value was determined as 0.13 ± 0.07, the “FAPy Adenine” value worked out at 0.08 ± 0.03, the “FAPy Guanine” value was found to be 0.03 ± 0.01 and the Hypoxanthine was found to be 18.12 ± 11.18. Moreover, in assay [8], the “Thymine Glycol (cis)” value was 0.68 ± 0.31 and the Xanthine amounted to 2.61 ± 1.64. Also, the “BcL-xL up or down regulation” value in the assay with BcL-xL [10] was “did not have any significant effects”. Moreover, the AT2 expression result in the assay on AT2 receptor is reported as “significantly reduced”. For the same molecule, the Fas expression entry in the assay with Fas is on record as “no significant effect”. Also, the BcL-xS expression entry in the assay on BcL-xS [11] was “significantly reduced expression”.

Regarding `O=C1O[C@H]([C@@H](O)CO)C(O)=C1O` [ascorbic acid], in [12], the “pyrogallol red bleaching inhibition” value is on record as about 100%. Besides, the “scavenging effect of ABTS” value in the assay “Inhibition of ABTS Assay” is recorded as 100%.
